Data on 24 compounds can be found in PubChem BioAssay (NCI).

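Compound exposure: 48 hours, 5 concentrations, 96-well plates. Here, GI50 denotes the concentration required for 50% inhibition of growth. The concentration for full growth arrest is given as TGI.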 Some results are limits rather than exact numbers.

Some test systems named below: OVCAR-3 ovarian; NCI-H460 lung; RXF 393 renal; OVCAR-8 ovarian; IGROV1 ovarian; MALME-3M melanoma; ACHN renal; KM12 colon; SNB-75 CNS.
Common to all, as to assay: inhibition of tumour cell growth, NCI panel, 48 h

On to `Oc1c2c(c(O)c3ccccc13)=N[C@@H](c1ccccc1)[C@H](c1ccccc1)N=2`, for which the TGI in the test with OVCAR-3 ovarian, in the test with NCI-H460 lung, in the test on RXF 393 renal, in the test with OVCAR-8 ovarian, in the test with IGROV1 ovarian and in the test with MALME-3M melanoma was over 100 µM throughout. The TGI in the test on ACHN renal, in the test with KM12 colon and with SNB-75 CNS was over 100 µM throughout.
As to `NC1=NC(=O)C(CC(=O)Nc2ccc([N+](=O)[O-])cc2[N+](=O)[O-])S1` (stereo not drawn), the TGI in the test with OVCAR-3 ovarian, in the test on NCI-H460 lung, in the test with RXF 393 renal, with OVCAR-8 ovarian, in the test on IGROV1 ovarian and in the test on MALME-3M melanoma was over 100 µM throughout. In addition, the TGI with ACHN renal, in the test with KM12 colon and with SNB-75 CNS was over 100 µM throughout.
In the case of `CN1CCN(C)C1c1cccc(C2N(C)CCN2C)c1`, the TGI in the test with OVCAR-3 ovarian, in the test on NCI-H460 lung, in the test on RXF 393 renal, in the test with IGROV1 ovarian, with ACHN renal and in the test on KM12 colon was over 100 µM in each case. For the same compound, in the test on SNB-75 CNS, the TGI is over 100 µM.
On to `CC1=Nc2c(ccc3c2C(=O)c2ccccc2C3=O)NC(c2ccncc2)C1` (stereo not drawn), for which the GI50 in the test on OVCAR-3 ovarian was over 100 µM; in the test with NCI-H460 lung, over 100 µM; in the test with RXF 393 renal it was over 100 µM; in the test with OVCAR-8 ovarian, over 100 µM; with MALME-3M melanoma, over 100 µM; in the test on ACHN renal, 23.5 µM. In addition, the TGI with OVCAR-3 ovarian, in the test with NCI-H460 lung, in the test on RXF 393 renal, in the test on OVCAR-8 ovarian, in the test on IGROV1 ovarian and in the test with MALME-3M melanoma was over 100 µM throughout. The TGI in the test on ACHN renal, in the test with KM12 colon and in the test with SNB-75 CNS was over 100 µM each time.
With `CC(=O)OCCOCBr`, the TGI with OVCAR-3 ovarian, with NCI-H460 lung, with RXF 393 renal, in the test with OVCAR-8 ovarian, with IGROV1 ovarian and with MALME-3M melanoma was over 100 µM throughout. The TGI in the test on ACHN renal, in the test with KM12 colon and in the test with SNB-75 CNS was over 100 µM throughout.
`C=C(COC(C)=O)CC(/C=C(\C)CCC=C(C)C)OC(C)=O` (stereo not drawn): the TGI in the test on OVCAR-3 ovarian, in the test with NCI-H460 lung, in the test with RXF 393 renal, in the test on OVCAR-8 ovarian, in the test on IGROV1 ovarian and with ACHN renal was over 100 µM in each case. The TGI in the test on KM12 colon and in the test on SNB-75 CNS was over 100 µM in each case.
Consider `O=C(Nc1ccc(S(=O)(=O)N[C@@H](C(=O)O)c2ccccc2)cc1)c1ccc(F)cc1`, for which the TGI with OVCAR-3 ovarian, in the test on NCI-H460 lung, with RXF 393 renal, in the test on OVCAR-8 ovarian, in the test with IGROV1 ovarian and with MALME-3M melanoma was over 100 µM throughout. For the same compound, the TGI in the test with ACHN renal, in the test with KM12 colon and in the test with SNB-75 CNS was over 100 µM each time.
Turning to `CC(O)CN1C(=O)NC(Cc2ccccc2)C1=O` (stereo not drawn), the TGI with NCI-H460 lung, with RXF 393 renal, in the test on OVCAR-8 ovarian, with ACHN renal, with KM12 colon and in the test on SNB-75 CNS was over 100 µM in each case.
As for `CC1CCCC(C(=O)/C(=C/c2cccc(Cl)c2)C(=O)C(=O)O)C1` (stereo not drawn), the TGI is 55.4 µM with OVCAR-3 ovarian; over 100 µM with NCI-H460 lung; 40 µM in the test on OVCAR-8 ovarian; 83.5 µM with IGROV1 ovarian; over 100 µM in the test with MALME-3M melanoma; over 100 µM with ACHN renal. Moreover, the results for the TGI with KM12 colon and in the test on SNB-75 CNS were 30.6 µM and over 100 µM, respectively.
In the case of `COc1ccc(/C=C/C(=O)c2sc(-n3nc(-c4ccccc4)cc3-c3ccccc3)nc2C)cc1OC`, the TGI was 62.5 µM in the test with OVCAR-3 ovarian; over 100 µM with NCI-H460 lung; over 100 µM with RXF 393 renal; over 100 µM in the test on OVCAR-8 ovarian; over 100 µM in the test on IGROV1 ovarian; over 100 µM in the test with MALME-3M melanoma. Further, the TGI in the test with ACHN renal and with KM12 colon was over 100 µM each time.
With `c1cc[c]([Sn]([S]c2cccc3cccnc23)([c]2ccccc2)[c]2ccccc2)cc1`, the GI50 in the test on OVCAR-3 ovarian was 0.0158 µM; with NCI-H460 lung, 0.0143 µM; in the test with OVCAR-8 ovarian, 0.0387 µM; in the test with IGROV1 ovarian, 0.0943 µM; in the test with ACHN renal, 0.0335 µM. Also, the TGI in the test on OVCAR-3 ovarian is 0.0346 µM; with NCI-H460 lung, 0.033 µM; in the test on OVCAR-8 ovarian, 0.255 µM; in the test with IGROV1 ovarian it was 0.351 µM; in the test with ACHN renal it was 0.116 µM; with SNB-75 CNS, 0.0473 µM.
Regarding `O=C1N[C@@H](O)[C@@H]2ON=C(c3ccccc3)[C@H]12`, the TGI in the test on OVCAR-3 ovarian, in the test with NCI-H460 lung, in the test on RXF 393 renal, in the test on OVCAR-8 ovarian, with IGROV1 ovarian and in the test with MALME-3M melanoma was over 100 µM each time. In addition, the TGI in the test on ACHN renal, in the test on KM12 colon and in the test on SNB-75 CNS was over 100 µM each time.
As to `CN(C)C(=S)/N=c1\ss/c(=N\S(=O)(=O)c2ccccc2)n1-c1ccccc1`, the TGI in the test with OVCAR-3 ovarian, with RXF 393 renal, in the test on OVCAR-8 ovarian, in the test with IGROV1 ovarian, in the test with MALME-3M melanoma and with ACHN renal was over 100 µM each time. In addition, the TGI in the test on KM12 colon and in the test with SNB-75 CNS was over 100 µM in each case.
In the case of `CCOC(=O)Cc1nc(/C(C#N)=C/c2ccco2)[nH]c(=O)c1C#N`, the TGI with OVCAR-3 ovarian, in the test on NCI-H460 lung, in the test on RXF 393 renal, in the test on OVCAR-8 ovarian, in the test with IGROV1 ovarian and in the test on ACHN renal was over 100 µM in each case. Further, the TGI in the test on KM12 colon and in the test with SNB-75 CNS was over 100 µM throughout.
`COc1cc(/C=C\c2ccc(O)cc2)cc(OC)c1OC`: the TGI with OVCAR-3 ovarian is 6.24 µM; in the test on NCI-H460 lung, over 30 µM; in the test on RXF 393 renal, over 25.1 µM; in the test with OVCAR-8 ovarian, over 100 µM; in the test with IGROV1 ovarian it was over 100 µM; with MALME-3M melanoma, over 40.9 µM. For the same compound, the TGI in the test on ACHN renal is over 100 µM; with KM12 colon, over 100 µM; in the test on SNB-75 CNS it was over 30 µM.
Turning to `Clc1ccc(CNc2nc3ccccc3nc2-c2cccs2)c(Cl)c1`, the TGI in the test with OVCAR-3 ovarian, in the test on NCI-H460 lung, in the test on RXF 393 renal, with OVCAR-8 ovarian, with MALME-3M melanoma and in the test with ACHN renal was over 100 µM in each case.
`O=C1c2ccccc2-c2cccc3ccc(Cc4ccccc4)c1c23`: the TGI in the test on OVCAR-3 ovarian, in the test on NCI-H460 lung, with RXF 393 renal, with OVCAR-8 ovarian, in the test on IGROV1 ovarian and in the test with MALME-3M melanoma was over 100 µM in each case. Further, the TGI with ACHN renal, with KM12 colon and in the test on SNB-75 CNS was over 100 µM throughout.
On to `CCOc1cccc2nc3cccc(C(=O)NCCN(C)C)c3nc12`, for which the TGI is 5.51 µM with OVCAR-3 ovarian; 3.21 µM with RXF 393 renal; over 20.4 µM in the test with OVCAR-8 ovarian; 2.42 µM in the test with MALME-3M melanoma; 3.01 µM with ACHN renal; 9.36 µM with KM12 colon. The TGI with SNB-75 CNS is 11.6 µM.
Regarding `O=C1CCn2c([nH]c3cccc4cccc2c43)=N1`, the TGI in the test with NCI-H460 lung, in the test with RXF 393 renal, with OVCAR-8 ovarian, with IGROV1 ovarian, in the test with ACHN renal and in the test with SNB-75 CNS was over 100 µM each time.
Turning to `CC/C=C\C/C=C\C1CC(=O)NCCCNCCCCN1` (stereo not drawn), the TGI with NCI-H460 lung was over 100 µM; in the test on RXF 393 renal it was 70.4 µM; in the test with OVCAR-8 ovarian, over 100 µM; with MALME-3M melanoma, 78.9 µM; with KM12 colon it was over 100 µM; with SNB-75 CNS it was over 100 µM.
As to `COc1ccc(C(=O)C(C(=O)CCC(=O)Nc2cccc(C(F)(F)F)c2)c2ccccc2)cc1` (stereo not drawn), the TGI with OVCAR-3 ovarian, with NCI-H460 lung, in the test with OVCAR-8 ovarian, in the test on IGROV1 ovarian, with MALME-3M melanoma and with ACHN renal was over 100 µM in each case. The TGI in the test with KM12 colon and with SNB-75 CNS was over 100 µM in each case.
`CC(=O)c1c(C)n([O-])c2cc(C)c(C)cc2[n+]1=O`: the TGI in the test on OVCAR-3 ovarian, in the test with NCI-H460 lung, in the test with OVCAR-8 ovarian, with IGROV1 ovarian, in the test with MALME-3M melanoma and in the test on ACHN renal was over 100 µM each time. In addition, the TGI in the test with KM12 colon and with SNB-75 CNS was over 100 µM in each case.
Consider `NS(=O)(=O)c1ccc(NC(=O)c2cccc3c(=O)c4ccccc4[nH]c23)cc1`, for which the TGI with OVCAR-3 ovarian is over 100 µM; with NCI-H460 lung, over 100 µM; in the test on OVCAR-8 ovarian it was over 100 µM; in the test with IGROV1 ovarian, over 100 µM; with MALME-3M melanoma, 94.8 µM; in the test with ACHN renal, over 100 µM. Besides, the TGI with KM12 colon came out at 73.6 µM; in the test on SNB-75 CNS, 55.2 µM.
Take `Clc1cc(Cl)c2c(Cl)cc(Cl)c3c2c1N=S=N3`: the TGI in the test on OVCAR-3 ovarian, in the test with RXF 393 renal, in the test on OVCAR-8 ovarian, in the test with IGROV1 ovarian, in the test on MALME-3M melanoma and in the test on KM12 colon was over 100 µM in each case. The compound also had a TGI in the test on SNB-75 CNS of over 100 µM.
